Source: patent EP0319906A2, “Novel quinoline derivatives, processes for preparation thereof and antibacterial agent containing them” (Dainippon Pharmaceutical Co., Ltd., priority 1987, dated 1989)

What was measured:
Type in all cases: cell-based
[1] = test system: C. Trachomatics G/ur 1242; test: Antichlamydia activity, MIC in McCoy cells (inclusion bodies); conditions: read-out: minimum inhibitory concentrations (MIC)
Procedure: (§1) The figures in the table show minimum inhibitory concentrations (MIC), (μg/ml), calculated for free base. Minimum inhibitory concentrations (MIC) were determined as follows. […] The cells were trypsinized and suspended in the same culture medium at a cell concentration of 1-2 x 10^5 cells/ml. One ml of the cell suspension was pipetted into flat-bottomed plastic tubes (14 mm in diameter) containing a cover slip (12 mm in diameter). The tubes were incubated in 5 % CO2-air at 36 °C for 20 hours. One-half ml of a chlamydial suspension (ca. 1-4 x 103 inclusion body forming units) was added into each tube, which was then centrifuged at 1500 x g for 60 minutes. The tubes were incubated for 1 hour at 36 °C. […] After further incubation at 36 °C for 40-48 hours, the cells on the cover glasses were stained with the Giemsa's solution. […] The MIC was defined as the lowest drug concentration where there were no inclusion bodies in all the cells on the cover slip.

C. Trachomatics G/ur 931 = test: as above; conditions: read-out: minimum inhibitory concentrations (MIC)
Procedure: as §1

[2] = test system: C. Trachomatics G/ur 1448; test: as above; conditions: read-out: minimum inhibitory concentrations (MIC)
Procedure: as §1

[3] = test system: C. Trachomatics G/ur 1317; test: as above; conditions: read-out: minimum inhibitory concentrations (MIC)
Procedure: as §1

S. aureus 209 JC-1 = test: In vitro antibacterial activity, twofold agar-dilution MIC; conditions: Staphylococcus aureus, 209JC1, 20 h, read-out: minimum inhibitory concentrations (MIC)
Procedure: (§2) The figures in the table show minimum inhibitory concentrations (MIC) (µg/ml), calculated for free base. […] One loopful of an overnight culture of test organisms in Mueller-Hinton broth was inoculated onto 10 ml drug- containing agar layers in petri dishes. Bacterial inocula contained approximately 10⁶ colonyl-forming units. […] The MIC was defined as the lowest drug concentration which prevented visible bacterial growth.

S. aureus No. 80 = test: as above; conditions: Staphylococcus aureus, NO.80, 20 h, read-out: minimum inhibitory concentrations (MIC)
Procedure: as §2

S. epidermidis No. 8 = test: as above; conditions: Staphylococcus epidermidis, NO.8, 20 h, read-out: minimum inhibitory concentrations (MIC)
Procedure: as §2

S. pyogenes A65 = test: as above; conditions: Streptococcus pyogenes, A65, 20 h, read-out: minimum inhibitory concentrations (MIC)
Procedure: as §2

E. coli NIHJ JC-2 = test: as above; conditions: Escherichia coli, NIHJJC2, 20 h, read-out: minimum inhibitory concentrations (MIC)
Procedure: as §2

P. aeruginosa 12 = test: as above; conditions: Pseudomonas aeruginosa, 12, 20 h, read-out: minimum inhibitory concentrations (MIC)
Procedure: as §2

S. aureus Terajima = test: as above; conditions: Staphylococcus aureus, 20 h, read-out: minimum inhibitory concentrations (MIC)
Procedure: as §2

S. marcescens S-9 = test: as above; conditions: Serratia marcescens, S9, 20 h, read-out: minimum inhibitory concentrations (MIC)
Procedure: as §2

E. coli P-5101 = test: as above; conditions: Escherichia coli, P5101, 20 h, read-out: minimum inhibitory concentrations (MIC)
Procedure: as §2

M. arginini G-230 = test: Antimycoplasma activity, twofold agar dilution MIC; conditions: 48 h, read-out: minimum inhibitory concentrations (MIC)
Procedure: (§3) The figures in the table show minimum inhibitory concentrations (MIC), (μg/ml), calculated for free base. Minimum inhibitory concentrations (MIC) were determined by the twofold agar dilution method. The media used were Chanock broth and agar [PPLD broth and agar (Difco) supplemented with 20 % horse serum and 10 % fresh yeast extract]. A 2-3 day broth culture of organisms was diluted with Chanock broth to a cell density of about 10^6 cells/ml. One loopful (about […]) of the organism dilution was spotted onto 10-ml drug containing Chanock agar in petri dishes using a multiple inoculator ([…] International). […] Incubation was performed anaerobically using the […] anaerobic system (BBL) for M. buccale, M. fermentans, M. hominis, M. orale and M. salivarium, and aerobically for other Mycoplasma spp. The MIC was defined as the lowest compound concentration at which no growth of organism was detected.

M. fermentans PG-18 = test: Antimycoplasma activity, twofold agar dilution MIC; conditions: Mycoplasmopsis fermentans, PG18, 48 h, read-out: minimum inhibitory concentrations (MIC)
Procedure: as §3

M. hyorhinis BST-7 = test: Antimycoplasma activity, twofold agar dilution MIC; conditions: Mesomycoplasma hyorhinis, BST7, 48 h, read-out: minimum inhibitory concentrations (MIC)
Procedure: as §3

A. laidlawii PG-8 = test: Antimycoplasma activity, twofold agar dilution MIC; conditions: Acholeplasma laidlawii, PG8, 48 h, read-out: minimum inhibitory concentrations (MIC)
Procedure: as §3

M. buccale CH-20249 = test: Antimycoplasma activity, twofold agar dilution MIC; conditions: 48 h, read-out: minimum inhibitory concentrations (MIC)
Procedure: as §3

M. pneumoniae Mac = test: Antimycoplasma activity, twofold agar dilution MIC; conditions: Mycoplasmoides pneumoniae, 168 h, read-out: minimum inhibitory concentrations (MIC)
Procedure: as §3

M. salivarium PG-20 = test: Antimycoplasma activity, twofold agar dilution MIC; conditions: 48 h, read-out: minimum inhibitory concentrations (MIC)
Procedure: as §3

M. hominis PG-21 = test: Antimycoplasma activity, twofold agar dilution MIC; conditions: Metamycoplasma hominis, PG21, 48 h, read-out: minimum inhibitory concentrations (MIC)
Procedure: as §3

M. orale CH-19299 = test: Antimycoplasma activity, twofold agar dilution MIC; conditions: po, 48 h, read-out: minimum inhibitory concentrations (MIC)
Procedure: as §3

For `Cl.O=C(O)c1cn(C2CC2)c2cc(N3CCNCC3)c(F)cc2c1=O` [Compound A, 1-cyclopropyl-6-fluoro-7-(1-piperazinyl)-1,4-dihydro-4-oxoquinoline-3-carboxylic acid hydrochloride], the MIC [1] was 1 µg/mL, the MIC (C. Trachomatics G/ur 931) was 1 µg/mL and the MIC [2] was 1 µg/mL. The MIC [3] was 2 µg/mL, the MIC (S. aureus 209 JC-1) was 0.1 µg/mL and the MIC (S. aureus No. 80) was 0.39 µg/mL. For the same molecule, the MIC (S. epidermidis No. 8) was 0.1 µg/mL, the MIC (S. pyogenes A65) was 0.2 µg/mL and the MIC (E. coli NIHJ JC-2) was 0.0063 µg/mL. For the same molecule, the MIC (P. aeruginosa 12) was 0.1 µg/mL, the MIC (S. aureus Terajima) was 0.1 µg/mL and the MIC (S. marcescens S-9) was 0.05 µg/mL. The MIC (E. coli P-5101) was 0.0063 µg/mL, the MIC (M. arginini G-230) was 0.39 µg/mL and the MIC (M. fermentans PG-18) was 0.2 µg/mL. The MIC (M. hyorhinis BST-7) was 0.39 µg/mL, the MIC (A. laidlawii PG-8) was 0.39 µg/mL and the MIC (M. buccale CH-20249) was 0.39 µg/mL. It also gave an MIC (M. pneumoniae Mac) of 0.78 µg/mL, an MIC (M. salivarium PG-20) of 3.13 µg/mL and an MIC (M. hominis PG-21) of 1.56 µg/mL. It also gave an MIC (M. orale CH-19299) of 1.56 µg/mL.
